Results as given in PubChem BioAssay (NCI).
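Five compound concentrations were applied to cells in 96-well plates for 48 hours; endpoints were derived by simple linear interpolation of the resulting dose-response curve. At the TGI there is no net growth.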

Legend:
Experiment in all cases: NCI anticancer screen, dose series, 48 h
PC-3 prostate = test system: PC-3 prostate
LOX IMVI melanoma = test system: LOX IMVI melanoma
SF-268 CNS = test system: SF-268 CNS
CCRF-CEM leukemia = test system: CCRF-CEM leukemia
NCI-H460 lung = test system: NCI-H460 lung
NCI-H23 lung = test system: NCI-H23 lung
NCI/ADR-RES ovarian = test system: NCI/ADR-RES ovarian
A498 renal = test system: A498 renal
MDA-MB-435 = test system: MDA-MB-435
UACC-62 melanoma = test system: UACC-62 melanoma
MDA-MB-231 breast = test system: MDA-MB-231 breast
SK-MEL-28 melanoma = test system: SK-MEL-28 melanoma
MALME-3M melanoma = test system: MALME-3M melanoma
UO-31 renal = test system: UO-31 renal
MDA-N = test system: MDA-N
786-0 renal = test system: 786-0 renal
TK-10 renal = test system: TK-10 renal
SN12C renal = test system: SN12C renal
A549 NSCLC = test system: A549 NSCLC
HOP-92 NSCLC = test system: HOP-92 NSCLC

| SMILES | TGI (PC-3 prostate) | TGI (LOX IMVI melanoma) | TGI (SF-268 CNS) | TGI (CCRF-CEM leukemia) | TGI (NCI-H460 lung) | TGI (NCI-H23 lung) | TGI (NCI/ADR-RES ovarian) | TGI (A498 renal) | TGI (MDA-MB-435) | TGI (UACC-62 melanoma) | TGI (MDA-MB-231 breast) | TGI (SK-MEL-28 melanoma) | TGI (MALME-3M melanoma) | TGI (UO-31 renal) | TGI (MDA-N) | TGI (786-0 renal) | TGI (TK-10 renal) | TGI (SN12C renal) | TGI (A549 NSCLC) | TGI (HOP-92 NSCLC) |
| --- | --- | --- | --- | --- | --- | --- | --- | --- | --- | --- | --- | --- | --- | --- | --- | --- | --- | --- | --- | --- |
| CCOc1cc(-c2nc3cc(F)ccc3s2)ccc1O | 28.7 µM | 33.4 µM | 31.2 µM | 18 µM | 34.9 µM | 33.8 µM | 50.2 µM | 26.2 µM | 33.8 µM | 31.6 µM | 48.4 µM | 43.1 µM | 29.8 µM | 25.8 µM | 31.7 µM | 29.6 µM | 34 µM | 35.6 µM | 37 µM | – |
| O=C(Nc1ccc2cc3ccccc3cc2c1)c1cc2c(cc1Cl)Sc1nccn1S2(=O)=O | 52.6 µM | > 100 µM | 97.6 µM | – | > 100 µM | > 100 µM | > 100 µM | – | > 100 µM | > 100 µM | 60.1 µM | > 100 µM | > 100 µM | > 100 µM | > 100 µM | 30 µM | 70.7 µM | > 100 µM | > 100 µM | > 100 µM |
| COC(=O)CNC(=O)CCC(C)[C@H]1CCC2C3C(C[C@H](OC(C)=O)[C@@]21C)[C@@]1(C)CCC2(C[C@H]1C[C@H]3OC(C)=O)OOC1(CCCCC1)OO2 (stereo partly drawn) | 6.29 µM | – | 3.59 µM | 5.02 µM | 3.63 µM | 3.64 µM | 4.7 µM | 34.4 µM | 4.06 µM | 21.7 µM | 3.48 µM | 22.1 µM | 6.22 µM | 3.3 µM | 3.36 µM | 3.48 µM | 24.2 µM | 3.17 µM | 3.36 µM | 2.72 µM |
| C[n+]1cn(-c2nc3ccccc3nc2[N-]S(=O)(=O)c2ccccc2)c2ccccc21 | > 100 µM | > 100 µM | > 100 µM | > 100 µM | > 100 µM | > 100 µM | > 100 µM | – | > 100 µM | > 100 µM | > 100 µM | > 100 µM | > 100 µM | > 100 µM | > 100 µM | > 100 µM | > 100 µM | > 100 µM | > 100 µM | > 100 µM |
| CCOC(=O)c1nc2cc(C(F)(F)F)ccc2nc1Oc1ccc(F)cc1 | > 100 µM | > 100 µM | > 100 µM | > 100 µM | > 100 µM | – | > 100 µM | > 100 µM | > 100 µM | > 100 µM | > 100 µM | > 100 µM | > 100 µM | > 100 µM | > 100 µM | > 100 µM | > 100 µM | > 100 µM | > 100 µM | > 100 µM |
| COc1ccc2c(c1OC)C(=O)O[C@@H]2[C@H]1c2c(cc3c(c2OC)OCO3)CCN1C | > 100 µM | > 100 µM | > 100 µM | > 100 µM | > 100 µM | > 100 µM | > 100 µM | > 100 µM | 32.2 µM | > 100 µM | > 100 µM | > 100 µM | 79.3 µM | > 100 µM | > 100 µM | > 100 µM | – | > 100 µM | > 100 µM | > 100 µM |
